Laboratory results published in patent US8343475B2, “Small cationic antimicrobial peptides” (priority 2006, dated 2013).
Converted amounts (≈) assume the structure as drawn. Like-named read-outs stand apart in the source and are kept apart here. Residues, ends and D or L forms follow the SMILES beside them.

Tests used:
Format in all cases: cell-based
[1] = test system: Pseudomonas aeruginosa PAO1 strain H103
Description: The biological activity of the peptides can be determined by standard methods known to those of skill in the art, such as “minimal inhibitory concentration (MIC)” assay described in the present examples, whereby the lowest concentration at which no change in OD is observed for a given period of time is recorded as MIC.
(§1) Minimal inhibitory concentration (MIC) determination. The MIC of the peptides were measured using a modified broth microdilution method in Mueller Hinton (MH) medium (Wu M, Hancock R E W. 1999. Interaction of the cyclic antimicrobial cationic peptide bactenecin with the outer and cytoplasmic membrane. J Biol Chem 274, 29-35). Briefly, the peptides were dissolved and stored in glass vials. The assay was performed in sterile 96-well polypropylene microtitre plates were used. Serial dilutions of the peptides to be assayed were performed in 0.01% acetic acid (Fisher) containing 0.2% bovine serum albumin (Boehringer Mannheim GmbH) at 10× the desired final concentration. Ten microlitres of the 10× peptides were added to each well of a 96-well polypropylene plate containing 90 μl of MH media per well. Bacteria were added to the plate from an overnight culture at 2-7×10^5 colony forming units/ml and incubated over night at 37° C. The MIC was taken as the concentration at which no growth was observed.
(§2) Strains. For the killing assay a mini-Tn5-lux mutant in Pseudomonas aeruginosa H103 was used. The strain is called H1001 and contains a fliC::luxCDABE transcriptional fusion resulting in constitutive expression of luciferase. The bacterial strains used for the antimicrobial activity assays included Escherichia coli UB1005 (F-, nalA37, metB1), a wild-type Salmonella enterica ssp. typhimurium (S. typhimurium), wild-type Pseudomonas aeruginosa PAO1 strain H103, Enterococcus faecalis ATCC29212, Staphylococcus aureus ATCC25923, and a clinical isolate of Staphylococcus epidermidis obtained from Dr. D. Speert (Department of Medicine, University of British Columbia). Antifungal activity was tested using a lab isolate of Candida albicans obtained from Dr. B. Dill (Department of Microbiology and Immunology, University of British Columbia).

[2] = test system: Enterococcus faecalis ATCC29212
Description: as §1, §2

Escherichia coli UB1005 = test system: Escherichia coli UB1005
Description: as §1, §2

[3] = test system: Staphylococcus aureus ATCC25923
Description: as §1, §2

[4] = test system: clinical isolate of Staphylococcus epidermidis
Description: as §1, §2

[5] = test system: lab isolate of Candida albicans
Description: as §1, §2

[6] = test system: wild-type Salmonella enterica ssp. typhimurium
Description: as §1, §2

[7] = indolicidin substitution variants (Table 4)

Compound | MIC P. aerug ([1]; PAO1) [µg/mL] | MIC E. faecalis ([2]; ATCC29212) [µg/mL] | MIC E. coli (Escherichia coli UB1005; UB1005) [µg/mL] | MIC S. aureus ([3]; ATCC25923) [µg/mL] | MIC S. epi. ([4]; clinical isolate of) [µg/mL] | MIC C. albicans ([5]; lab isolate of) [µg/mL] | MIC S. typhi [6] [µg/mL] | MIC E. coli (Escherichia coli UB1005; [7]) [µg/mL] | MIC P. aerug [1, 7] [µg/mL] | MIC E. faecalis [2, 7] [µg/mL] | MIC S. aureus [3, 7] [µg/mL] | MIC S. epi. [4, 7] [µg/mL] | MIC C. albicans [5, 7] [µg/mL]
CC[C@H](C)[C@H](NC(=O)[C@H](CCCNC(=N)N)NC(=O)[C@H](Cc1ccccc1)NC(=O)[C@H](CCCNC(=N)N)NC(=O)[C@@H](N)CCCCN)C(=O)N[C@@H](CCCNC(=N)N)C(=O)N[C@H](C(=O)N[C@@H](C)C(=O)N[C@H](C(=O)N[C@@H](CCCNC(=N)N)C(=O)N[C@@H](CCCNC(=N)N)C(=O)N[C@@H](C)C(N)=O)C(C)C)C(C)C [HH10, KRFRIRVAVRRA] (H-KRFRIRVAVRRA-NH2; N-terminus assumed) | 25 (≈ 16.4 µM) | >50 | 6 (≈ 3.93 µM) | 25 (≈ 16.4 µM) | 3.1 (≈ 2.03 µM) | 12 (≈ 7.86 µM) | >50 |  |  |  |  |  | 
CC[C@H](C)[C@H](NC(=O)[C@H](CCCNC(=N)N)NC(=O)[C@H](CC(C)C)NC(=O)[C@H](CCCNC(=N)N)NC(=O)[C@@H](N)C(C)C)C(=O)N[C@@H](CCCNC(=N)N)C(=O)N[C@H](C(=O)N[C@@H](CCCNC(=N)N)C(=O)N[C@H](C(=O)N[C@H](C(=O)N[C@@H](CCCNC(=N)N)C(=O)N[C@@H](CCCCN)C(N)=O)[C@@H](C)CC)C(C)C)C(C)C [HH11, VRLRIRVRVIRK] (H-VRLRIRVRVIRK-NH2; N-terminus assumed) | 3 (≈ 1.92 µM) | 12 (≈ 7.68 µM) | 1.6 (≈ 1.02 µM) | 6 (≈ 3.84 µM) | 0.8 (≈ 0.512 µM) | 3 (≈ 1.92 µM) | 6 (≈ 3.84 µM) |  |  |  |  |  | 
CC[C@H](C)[C@H](NC(=O)[C@H](CCCNC(=N)N)NC(=O)[C@H](Cc1c[nH]c2ccccc12)NC(=O)[C@H](CCC(N)=O)NC(=O)[C@@H](N)Cc1c[nH]cn1)C(=O)N[C@@H](CCCNC(=N)N)C(=O)N[C@H](C(=O)N[C@@H](C)C(=O)N[C@H](C(=O)N[C@@H](CCCNC(=N)N)C(=O)N[C@@H](CCCNC(=N)N)C(=O)N[C@@H](Cc1c[nH]cn1)C(N)=O)C(C)C)C(C)C [HH14, HQWRIRVAVRRH] (H-HQWRIRVAVRRH-NH2) | 50 (≈ 31 µM) | >50 | 6 (≈ 3.72 µM) | 25 (≈ 15.5 µM) | 12 (≈ 7.44 µM) | 25 (≈ 15.5 µM) | 25 (≈ 15.5 µM) |  |  |  |  |  | 
CC[C@H](C)[C@H](NC(=O)[C@H](CCCNC(=N)N)NC(=O)[C@H](Cc1ccccc1)NC(=O)[C@H](CCCNC(=N)N)NC(=O)[C@@H](N)CCCCN)C(=O)N[C@@H](CCCNC(=N)N)C(=O)N[C@H](C(=O)N[C@@H](CCCNC(=N)N)C(=O)N[C@H](C(=O)N[C@H](C(=O)N[C@@H](CCCNC(=N)N)C(=O)N[C@@H](CCCCN)C(N)=O)[C@@H](C)CC)C(C)C)C(C)C [HH15, KRFRIRVRVIRK] (H-KRFRIRVRVIRK-NH2) | 6 (≈ 3.69 µM) | 25 (≈ 15.4 µM) | 1.6 (≈ 0.984 µM) | 6 (≈ 3.69 µM) | 0.8 (≈ 0.492 µM) | 12 (≈ 7.38 µM) | 3 (≈ 1.84 µM) |  |  |  |  |  | 
CC[C@H](C)[C@H](NC(=O)[C@H](CCCNC(=N)N)NC(=O)[C@H](Cc1c[nH]c2ccccc12)NC(=O)[C@H](CCCNC(=N)N)NC(=O)[C@@H](N)CCCCN)C(=O)N[C@@H](CCCNC(=N)N)C(=O)N[C@H](C(=O)N[C@@H](CCCNC(=N)N)C(=O)N[C@H](C(=O)N[C@H](C(=O)N[C@@H](CCCNC(=N)N)C(=O)N[C@@H](CCCCN)C(N)=O)[C@@H](C)CC)C(C)C)C(C)C [HH16, KRWRIRVRVIRK] (H-KRWRIRVRVIRK-NH2) | 3 (≈ 1.8 µM) | 12 (≈ 7.21 µM) | 1.6 (≈ 0.961 µM) | 3 (≈ 1.8 µM) | 0.8 (≈ 0.48 µM) | 6 (≈ 3.6 µM) | 3 (≈ 1.8 µM) |  |  |  |  |  | 
CC[C@H](C)[C@H](NC(=O)[C@@H](N)CCCCN)C(=O)N[C@@H](Cc1c[nH]c2ccccc12)C(=O)N[C@H](C(=O)N[C@@H](CCCNC(=N)N)C(=O)N[C@@H](Cc1c[nH]c2ccccc12)C(=O)N[C@@H](CCCCN)C(N)=O)C(C)C [HH17, KIWVRWK-NH2] (H-KIWVRWK-NH2) | >50 | >50 | 50 (≈ 49.3 µM) | >50 | >50 | >50 | >50 |  |  |  |  |  | 
CC[C@H](C)[C@H](N)C(=O)N[C@@H](CC(C)C)C(=O)N1CCC[C@H]1C(=O)N[C@@H](Cc1c[nH]c2ccccc12)C(=O)N[C@@H](CCCCN)C(=O)N[C@@H](CCCCN)C(=O)N1CCC[C@H]1C(=O)N[C@@H](Cc1c[nH]c2ccccc12)C(=O)N[C@@H](Cc1c[nH]c2ccccc12)C(=O)N1CCC[C@H]1C(=O)N[C@@H](Cc1c[nH]c2ccccc12)C(=O)N[C@@H](CCCNC(=N)N)C(=O)N[C@@H](CCCNC(=N)N)C(N)=O [HH113, ILPWKKPWWPWRR] (H-ILPWKKPWWPWRR-NH2; N-terminus assumed) | 31 (≈ 16.8 µM) | 125 (≈ 67.6 µM) |  | 31 (≈ 16.8 µM) | 8 (≈ 4.33 µM) | 62 (≈ 33.5 µM) | 62 (≈ 33.5 µM) | 31 (≈ 16.8 µM) |  |  |  |  | 
CC[C@H](C)[C@H](N)C(=O)N[C@@H](CC(C)C)C(=O)N[C@@H](CCCCN)C(=O)N[C@@H](Cc1c[nH]c2ccccc12)C(=O)N[C@@H](CCCCN)C(=O)N[C@@H](Cc1c[nH]c2ccccc12)C(=O)N1CCC[C@H]1C(=O)N[C@@H](Cc1c[nH]c2ccccc12)C(=O)N[C@@H](Cc1c[nH]c2ccccc12)C(=O)N[C@@H](CCCCN)C(=O)N[C@@H](Cc1c[nH]c2ccccc12)C(=O)N[C@@H](CCCNC(=N)N)C(=O)N[C@@H](CCCNC(=N)N)C(N)=O [HH970, ILKWKWPWWKWRR] (H-ILKWKWPWWKWRR-NH2; N-terminus assumed) | 16 (≈ 8.13 µM) | 31 (≈ 15.7 µM) |  | 8 (≈ 4.06 µM) | 2 (≈ 1.02 µM) | 16 (≈ 8.13 µM) | 16 (≈ 8.13 µM) | 8 (≈ 4.06 µM) |  |  |  |  | 
CC[C@H](C)[C@H](N)C(=O)N[C@@H](CC(C)C)C(=O)N1CCC[C@H]1C(=O)N[C@@H](Cc1c[nH]c2ccccc12)C(=O)N[C@@H](CCCCN)C(=O)N[C@@H](Cc1c[nH]c2ccccc12)C(=O)N[C@@H](CCCNC(=N)N)C(=O)N[C@@H](Cc1c[nH]c2ccccc12)C(=O)N[C@@H](Cc1c[nH]c2ccccc12)C(=O)N[C@@H](CCCCN)C(=O)N[C@@H](Cc1c[nH]c2ccccc12)C(=O)N[C@@H](CCCNC(=N)N)C(=O)N[C@@H](CCCNC(=N)N)C(N)=O [HH971, ILPWKWRWWKWRR] (H-ILPWKWRWWKWRR-NH2; N-terminus assumed) | 16 (≈ 8.01 µM) | 31 (≈ 15.5 µM) |  | 8 (≈ 4.01 µM) | 2 (≈ 1 µM) | 8 (≈ 4.01 µM) | 16 (≈ 8.01 µM) | 8 (≈ 4.01 µM) |  |  |  |  | 
CC(C)C[C@H](NC(=O)[C@@H](N)Cc1ccccc1)C(=O)N1CCC[C@H]1C(=O)N[C@@H](CCCCN)C(=O)N[C@@H](CCCCN)C(=O)N[C@@H](Cc1ccccc1)C(=O)N[C@@H](CCCNC(=N)N)C(=O)N[C@@H](Cc1c[nH]c2ccccc12)C(=O)N[C@@H](Cc1c[nH]c2ccccc12)C(=O)N[C@@H](CCCCN)C(=O)N[C@@H](Cc1ccc(O)cc1)C(=O)N[C@@H](CCCNC(=N)N)C(=O)N[C@@H](CCCCN)C(N)=O [HH972, FLPKKFRWWKYRK] (H-FLPKKFRWWKYRK-NH2; N-terminus assumed) | 31 (≈ 16.5 µM) | >125 |  | 31 (≈ 16.5 µM) | 8 (≈ 4.25 µM) | 31 (≈ 16.5 µM) | 31 (≈ 16.5 µM) | 16 (≈ 8.5 µM) |  |  |  |  | 
CC[C@H](C)[C@H](N)C(=O)N[C@@H](CC(C)C)C(=O)N1CCC[C@H]1C(=O)N[C@@H](Cc1c[nH]c2ccccc12)C(=O)N[C@@H](CCCCN)C(=O)N[C@@H](Cc1c[nH]c2ccccc12)C(=O)N1CCC[C@H]1C(=O)N[C@@H](Cc1c[nH]c2ccccc12)C(=O)N[C@@H](Cc1c[nH]c2ccccc12)C(=O)N1CCC[C@H]1C(=O)N[C@@H](Cc1c[nH]c2ccccc12)C(=O)N[C@@H](CCCNC(=N)N)C(=O)N[C@@H](CCCNC(=N)N)C(N)=O [Indolicidin, ILPWKWPWWPWRR-NH2, reference compound] |  |  |  |  |  |  | 31 (≈ 16.3 µM) | 8 (≈ 4.2 µM) | 62 (≈ 32.5 µM) | 31 (≈ 16.3 µM) | 16 (≈ 8.39 µM) | 8 (≈ 4.2 µM) | 16 (≈ 8.39 µM)
